Several values for one entry are separate records, joined by “and”; a condition that tells them apart may be missing. Identical values can stand only once.
Tests used:
RPMI-8226 cells [1] = experiment: GI50 assay, MTT cell proliferation; format: cell-based, human
Experimental: RPMI-8226 cells were grown in 96 well plates for 24 h prior to addition of 2-methoxy antimycins. Antimycin stocks in dimethyl sulfoxide (DMSO) were serially diluted in RPMI. Cells were incubated for 48 h with compounds at final compound concentrations ranging from 10^−4 to 10^−8 M. MTT cell proliferation assays were performed in quadruplicate and percent growth inhibitions were calculated as (A570 (control cells)-A570 (treated cells))/A570 (control cells). GI50 was extrapolated from semi-log plots of the dose response for each compound. […] After 72 h drug exposures, 1 μCi/ml [^3H]-thymidine was added to wells. Cells were incubated for an additional 24 h, and then transferred to GF/C filter plates (Packard) using a plate washer. Filters were dried, added to scintillant, and counted in a TopCount® scintillation counter (Packard). Drug response is expressed as the percentage of vehicle-treated controls, and each value shown is the average of three determinations.

[2] = LC/MS analyses of plasma after administration; format: in vivo, mice; conditions: preliminary LC/MS analyses
NOD/SCID mice = experiment: In vivo toxicity, intravenous dosing
Experimental: (§1) 2-OMe antimycin A1 was synthesized from antimycin A1 (Sigma) and dissolved in phosphate-buffered saline with 20% Cremaphor, 25% ethanol (3 mg/ml) for parenteral administration by tail vein injection in a total volume of 100 μl. Control mice received injections of Cremaphor/ethanol vehicle.
(§2) To determine whether 2-OMeAA1 has anti-tumor activity in vivo, a total of 12 NOD/SCID mice in three experiments were inoculated with 3×10^7 RPMI-8226 human myeloma cells by interscapular subcutaneous injection. […] In total, six mice received three intravenous doses of 10 mg/kg 2-OMeAA1 on alternate days starting on day 6. Six control mice received injections of Cremaphor/ethanol vehicle without drug.

RPMI-8226 cells [3] = experiment: Combined cytotoxicity with standard anticancer agents; format: cell-based, human; conditions: suboptimal combinations, 24 h
Experimental: Concentrations of standard chemotherapeutic agents were adjusted to achieve <20% cell death as single agents over 24 h treatments. Cells treated with 20 μg/ml 2-OMe antimycin A1 and indicated concentrations of etoposide, melphalan or daunorubicin. Predicted viability at 24 h is derived from additive cytotoxicity of single agents (open symbols). Observed viability for combination (closed symbols). Each symbol represents separate experiment. Viabilities (PI-negative) are normalized to untreated cells.

[4] = tested on: RPMI-8226 human myeloma cells; experiment: RPMI-8226 myeloma tumor xenografts
Experimental: Six to nine-week old Nod/Les2 Scid/J mice were inoculated with 3×10^7 RPMI-8226 cells by interscapular subcutaneous injection. Mice were maintained under specific pathogen-free conditions. Palpable tumor nodules were measured in two dimensions with calipers and tumor volumes calculated in mm^3 as (length×width^2)/2. Blood samples were collected by retro-orbital bleed for human light chain measurements by ELISA with lambda-specific antibody and horseradish peroxidase detection (BD Biosciences). Animals were sacrificed by halothane inhalation, and histologic examination of tumors and internal organs was performed. All experiments were approved by the Fred Hutchinson Cancer Research Center Institutional Animal Care and Use Committee.
as §1
Tissues were fixed in 10% buffered formalin, embedded in paraffin, sectioned and stained with hematoxylin and eosin. TUNEL staining was performed using 0.3 units/ml terminal deoxynucleotidyl transferase and biotinylated dATP with development by avidin-biotin peroxidase method. Bcl-xL immunohistochemistry was performed using anti-Bcl-xL antibody (BD Biosciences) followed by biotinylated secondary antibody and peroxidase-labeled ABC reagent (Vector, Burlingame Calif.).
as §2

Bcl-xL(ΔC) WT = target: T1, Bcl-xL(ΔC) WT (Homo sapiens, UniProt Q07817); experiment: Pore assay, calcein release from large unilamellar vesicles; format: biochemical
T1 construct: inferred from pET22b(+) NdeI/XhoI cloning and nickel-NTA purification) (C); made in house; host or cells: Escherichia coli BL21(DE3) carrying pUB520
Experimental: Large unilamellar vesicles composed of 60% dioleoylphophatidylcholine and 40% dioleoylphosphatidylglycerol were prepared by the extrusion method of Mayer et al., supra. Lipid stocks, in chloroform, were mixed and dried under a stream of nitrogen gas. The lipid was resuspended by vortexing for 30 min in a solution of 40 mM calcein (Molecular Probes), 25 mM KCl, and 10 mM KOAc, pH 5.0. After 10 freeze-thaw cycles, the lipid suspension was extruded through two 0.1 μm pore diameter Nucleopore filters. Non-entrapped dye was removed by passage over a Sephadex G10 column (Amersham Biosciences). Lipid concentration was measured using the ammonium ferrothiocyanate method (Stewart, Anal. Biochem. 104:10-14, 1980).
For pore assays, recombinant truncated Bcl-2 family protein or mutant protein (Bcl-xL(ΔC)) (500 nM) was added to large unilamellar vesicles (60 μM lipid concentration) in 100 mM KCl, 10 mM KOAc, pH 5.0, and fluorescence measured (490 nm excitation, 520 nm emission) with a Fluoromax-3 spectrophotometer. Peptides of the BH3 domain were incubated with the Bcl-xL(ΔC) 5 min prior to mixing with liposomes. AA1 was added to liposomes 1 min before adding the Bcl-xL(ΔC) protein. Samples for kinetic assays were analyzed in a thermostatted cuvette at 37° C. with constant stirring. Dose responses were measured in black quartz microplates (Hellma) at room temperature. Calcein release was expressed as percentage of maximum release with detergent lysis (0.1% Triton X-100).

[5] = tested on: TAMH cells over-expressing Bcl-xL F146L; experiment: STS and antimycin toxicity, Alamar Blue viability; format: cell-based, murine; conditions: for LD50: 24 h treatment
Experimental: (§3) TAMH cells were transfected with DNA encoding each of the mutant Bcl-xL proteins by lipofection (See Example 1 for method). For analysis of Bcl-xL expression, 20 μg of cell protein was separated by 20% SDS-PAGE and transferred to nitrocellulose membranes. Immunodetection of Bcl-xL was carried out using rabbit anti-Bcl-xL antibody and Protein A/horseradish peroxidase conjugate, followed by chemiluminescent detection. Cells were grown to about 80% confluence in 96-well plates followed by addition of 100 μl of 2×AA1 or staurosporine (STS) solution in complete medium. STS is a natural product originally isolated from the bacterium Streptomyces and found to be capable of inducing apoptosis in certain cells and which induction of apoptosis could be blocked by the expression of a Bcl-2 family protein. Cell viability was determined spectrophotometrically after 24 h treatment as the ratio of reduced and oxidized Alamar Blue (BIOSOURCE) at 570 nm and 600 nm, respectively. All results were normalized against DMSO controls. LD50 values were calculated by non-linear regression analysis using Prism software (Graphpad).

[6] = tested on: TAMH cells over-expressing Bcl-xL E92L; experiment: STS and antimycin toxicity, Alamar Blue viability; format: cell-based, murine; conditions: 24 h treatment
Experimental: as §3

[7] = tested on: TAMH cells over-expressing Bcl-xL F97W; experiment: STS and antimycin toxicity, Alamar Blue viability; format: cell-based, murine; conditions: 24 h treatment
Experimental: as §3

[8] = tested on: TAMH cells over-expressing Bcl-xL A142L; experiment: STS and antimycin toxicity, Alamar Blue viability; format: cell-based, murine; conditions: for LD50: 24 h treatment
Experimental: as §3

[9] = tested on: TAMH cells over-expressing Bcl-xL WT; experiment: STS and antimycin toxicity, Alamar Blue viability; format: cell-based, murine; conditions: 24 h treatment
Experimental: as §3

Bcl-xL(ΔC) F146L = target: T2, Bcl-xL(ΔC) F146L (Homo sapiens, UniProt Q07817, F146L); experiment: Fluorescence anisotropy binding
T2 construct: inferred from pET22b(+) NdeI/XhoI cloning and nickel-NTA purification) (C); made in house; host or cells: Escherichia coli BL21(DE3) carrying pUB520
Experimental: (§4) A pET22b (Novagen) vector coding for Bcl-xL(ΔC), a mutant Bcl-xL protein without the COOH terminal region, was transformed into Escherichia coli BL21(DE3) cells that carried pUB520 (encoding human Arg tRNA) and grown to an A600 of 0.6. Protein expression was induced with 0.1 mM isopropyl β-D-thiogalactoside at 30° C. The cells were resuspended 1:5 (w/v) in PEB buffer (50 mM Tris, pH 8.0, 200 mM NaCl, 0.2 mM phenylmethylsulfonyl fluoride, 5 mM β-mercaptoethanol, 5 mM imidazole, and 1% (v/v) glycerol), and stirred for 20 min at 4° C. Cells were disrupted by pulse sonication, and the soluble fraction was loaded onto a nickel-nitrilotriacetic acid column (Qiagen) equilibrated with PEB buffer. The column was washed with 40 mM imidazole, eluted with 200 mM imidazole, and the protein fractions were pooled and dialyzed (50 mM Tris, pH 8.0, 200 mM NaCl, 0.2 mM phenylmethylsulfonyl fluoride) at 4° C. overnight. The dialyzed protein was concentrated to 10 mg/ml and fractionated on a Superdex 75 gel filtration column (Amersham Biosciences). The fractions containing Bcl-xL(ΔC) protein were pooled, exchanged into low-salt buffer (same as for previous dialysis buffer, except 50 mM NaCl), and loaded onto a MonoQ anion exchange column (Amersham Biosciences). Protein was eluted from the column with increasing NaCl gradient, pooled and concentrated.
(§5) All reagents were prepared in 0.2 μm-filtered PBS with fresh 1 mM DTT. […] Slit widths were set at 10 nm for both excitation and emission.

Bcl-xL(ΔC) F97W = target: T3, Bcl-xL(ΔC) F97W (Homo sapiens, UniProt Q07817, F97W); experiment: Fluorescence anisotropy binding
T3 construct: inferred from pET22b(+) NdeI/XhoI cloning and nickel-NTA purification) (C); made in house; host or cells: Escherichia coli BL21(DE3) carrying pUB520
Experimental: as §4, §5

Bcl-xL(ΔC) A142L = target: T4, Bcl-xL(ΔC) A142L (Homo sapiens, UniProt Q07817, A142L); experiment: Fluorescence anisotropy binding
T4 construct: inferred from pET22b(+) NdeI/XhoI cloning and nickel-NTA purification) (C); made in house; host or cells: Escherichia coli BL21(DE3) carrying pUB520
Experimental: as §4, §5

[10] = tested on: TAMH vector-only control cells; experiment: STS toxicity, Alamar Blue viability; format: cell-based, murine; conditions: 24 h treatment
Experimental: as §3

T1 sequence (Q07817 1-211 limits assumed, stated change not applied): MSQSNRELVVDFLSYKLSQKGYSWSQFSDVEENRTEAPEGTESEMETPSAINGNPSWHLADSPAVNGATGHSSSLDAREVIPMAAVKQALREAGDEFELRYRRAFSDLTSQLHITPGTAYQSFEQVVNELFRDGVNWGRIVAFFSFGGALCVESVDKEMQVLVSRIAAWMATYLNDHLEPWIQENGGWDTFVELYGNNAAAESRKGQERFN
T4 sequence (Q07817 1-211 A142L limits assumed): as the sequence (Q07817 1-211 limits assumed, stated change not applied) above, with A142L counted along it
T3 sequence (Q07817 1-211 F97W limits assumed): as the sequence (Q07817 1-211 limits assumed, stated change not applied) above, with F97W counted along it
T2 sequence (Q07817 1-211 F146L limits assumed): as the sequence (Q07817 1-211 limits assumed, stated change not applied) above, with F146L counted along it

## 2-OMe antimycin A5
RPMI-8226 cells [1]
  activity (GI50) relative to 2-OMe antimycin A1, A2 and A3: approximately ⅓

## CCCCCC[C@H]1C(=O)O[C@H](C)[C@H](NC(=O)c2cccc(NC=O)c2OC)C(=O)O[C@@H](C)[C@@H]1OC(=O)CC(C)C [2-OMeAA1, 2-OMe antimycin A1]
[2]
  reformation of antimycin A1 in plasma: have not demonstrated reformation of antimycin A1
NOD/SCID mice; 10 mg/kg
  histologic examination of normal tissues: No cellular injury or inflammation
NOD/SCID mice; schedule of 3 intravenous doses on alternate days
  LD50 dose: 20 mg/kg
NOD/SCID mice; three intravenous doses at 10 mg/kg on alternate days
  mice survived without apparent toxicity: 6/6
RPMI-8226 cells [3]
  combined killing with etoposide or melphalan: Supra-additive killing
[4]; 10 mg/kg
  adverse effects in treated mice: No adverse effects
[4]; 10 mg/kg i.v., after the third injection
  average reduction of serum levels of human light chain: 87%
[4]; 10 mg/kg on alternate days, days 26 to 31
  mice with regression of tumor nodules, second round: six of six
[4]; 24 and 48 h after a single 10 mg/kg intravenous treatment
  apoptosis in tumor sections: widespread apoptosis
[4]; three i.v. doses of 10 mg/kg on alternate days from day 6
  mice with tumor regression during treatment: Five of six
Bcl-xL(ΔC) WT
  effect on Bcl-xL pore-forming activity (FIG. 3A): inhibited

## CCCCCC[C@H]1C(=O)O[C@H](C)[C@H](NC(=O)c2cccc(NC=O)c2O)C(=O)O[C@@H](C)[C@@H]1OC(=O)CC(C)C [AA1, antimycin A1]
Bcl-xL(ΔC) WT
  effect on Bcl-xL pore-forming activity (FIG. 3A): inhibited
[5]
  sensitivity of mutant cells to antimycin A1: completely insensitive
  LD50: >10 µM
[6]
  LD50: 1.72 ± 0.34^2 μM
[6]; listed as antimycin A1
  LD50: 1.72 ± 0.3 µM
[7]
  LD50: 5.12 ± 0.94^2 μM
[7]; listed as antimycin A1
  LD50: 5.12 ± 0.9 µM
[8]
  sensitivity of mutant cells to antimycin A1: completely insensitive
  LD50: >10 µM
[9]
  LD50: 0.47 ± 0.07 µM
[9]; listed as antimycin A1
  LD50: 0.47 µM
Bcl-xL(ΔC) F146L
  fold decrease in AA1 affinity: ~10 fold
Bcl-xL(ΔC) F97W
  fold increase in Kd of AA1 binding compared with Bcl-xL wt(ΔC): 8 fold
Bcl-xL(ΔC) A142L
  fold increase in Kd of AA1 binding compared with Bcl-xL wt(ΔC): 20 fold

## CN[C@@H]1C[C@H]2O[C@@](C)([C@@H]1OC)n1c3ccccc3c3c4c(c5c6ccccc6n2c5c31)C(=O)NC4 [STS, staurosporine]
[10]
  LD50: 0.11 ± 0.01 µM
[5]
  LD50: 0.38 ± 0.04 µM
[6]
  LD50: 0.52 ± 0.12 µM
[7]
  LD50: 0.34 ± 0.10 µM
[8]
  LD50: 0.49 ± 0.11 µM
[9]
  LD50: 0.58 ± 0.1 µM and 0.58 ± 0.14 µM

From US20100221709A1, “METHODS FOR IDENTIFYING AGENTS THAT MODULATE APOPTOSIS IN CELLS THAT OVER-EXPRESS A BCL-2 FAMILY MEMBER PROTEIN” (priority 2005, published 2010)
